The values below come from patent US9023853B2, “Janus kinase 2 (JAK2) inhibitor for the treatment of lupus” (Cephalon, Inc., priority 2010, dated 2015).

Holding throughout (format): in vivo, mouse
The test system of one assay is IL-12. Nature of the assay: Serum IL-12 (Luminex) in MRL/lpr mice. On the procedure: For the processing of serum samples for cytokine analysis, frozen plasma at -80° C. was thawed on ice, vortexed, and centrifuged for 10 minutes to remove debris and aggregates. A total of 25-50 μL of serum was used for Luminex® assays following the manufacturer's instructions. Ten different mouse cytokines were measured using the mouse cytokine 10-plex bead kit (Invitrogen, Carlsbad, Calif., no. LMC0001). Briefly, filter plates (Millipore, Billerica, Mass., no. […]10), were pre-wet with 200 μL of wash solution (kit component) and 25 μL of beads were added per well. Serum samples were diluted and a total volume of 50 μL was added per well (ie, 25 μL of sample serum plus 25 μL of assay diluent as provided by the manufacturer). Plates with beads were incubated for 2 hours at room temperature (RT) on an orbital shaker in the dark. At the end of the incubation, plate(s) were washed twice in kit buffer, secondary biotinylated antibody was added at a 1:10 dilution (100 μL) in biotin diluent provided with the kit. Plates were incubated at RT for 1 hour in the dark then washed twice in kit buffer. Strepavidin in assay diluent was added at 100 μL per well, then incubated for 30 minutes at RT in the dark. The plates were washed 3 times then 100 μL of kit wash solution was added and agitated for 2-3 minutes at RT in the dark. […]

In the next assay the test system is CXCL9/MIG. In words: Serum CXCL9/MIG in NZM mice. The method, then: (§1) For the processing of serum samples for cytokine analysis, frozen plasma at −80° C. was thawed on ice, vortexed, and centrifuged for 10 minutes to remove debris and aggregates. A total of 25-50 μL of serum was used for Luminex® assays following the manufacturer's instructions. Ten different mouse cytokines were measured using the mouse cytokine 10-plex bead kit (Invitrogen, Carlsbad, Calif., no. LMC0001). Briefly, filter plates (Millipore, Billerica, Mass., no. MAIPSWU10), were pre-wet with 200 μL of wash solution (kit component) and 25 μL of beads were added per well. […]
(§2) Age mated, female, NZM or NZW/LacJ, mice were matured for the study of lupus nephritis for a total of 7 months or 210 days at which time urine was collected for proteinuria detection. Mice with 0.5-1.0 mg/ml of urine protein as determined by an optical density-based total protein precipitation assay and cross-checked for 30-300 mg/dl of protein as determined by a stick assay were considered proteinuria positive and selected for study entry. […] End-stage lupus nephritis was evaluated by histopathology and scored by a board certified pathologist for the assessment of total renal damage in diseased animals using the scoring method described by Smith et al (Smith, Dong et al. 2007). […]

The next assay has as its system MRL/lpr mice. Nature of the assay: Lymphomegaly, splenomegaly and spleen leukocyte counts in MRL/lpr lupus model. To be noted: for total spleen leukocyte counts compared to vehicle: p<0.05; for mice without lymphomegaly: vehicle 0%. The method, then: Six week old lupus-prone, female, MRL/lpr (Jackson Labs, #000485) and non-lupus prone control MRL/MpJ (Jackson Labs, #000486) mice were obtained from Jackson Laboratories (Bar Harbor, Me.) at 6-weeks of age. Spontaneous SLE-prone NZBWF1/J (NZM) (catalog no. 100008) female mice and non-lupus prone (within time from of experiment) NZW/LacJ (catalog no. 001058) female mice were obtained from Jackson Laboratories (Bar Harbor, Me.) at 15-weeks of age. All mice were maintained on a […] light/dark cycle, with food and water available ad libitum. All experimental animal procedures were approved by and in accordance to the regulations of the Institutional Animal Care and Use Committee (IACUC) of Cephalon, Inc; approved IACUC protocol #03-040 and #03-03-041. […] Due to this impaired tolerance mechanism, a percentage of all T and B cells that enter the periphery have a high likelihood of responding to self protein/tissues and thus initiate autoimmunity early in life. The MRL/lpr model mice develop several chronic inflammatory disease-like symptoms that are characteristic of early and late lupus including the generation of anti-nuclear antibodies, arthritis, dermatological manifestations, immunocomplex-mediated glomerulonephritis leading to proteinuria and eventual death. Lesser characterized phenomenon are CNS and cardiac manifestations, both of which are more common in humans. […] Mortality is higher in the females and occurs around 25 weeks of age, renal disease includes glomerulonephritis, glomerular infiltrates, sclerosis and vasculitis. Both splenomegaly and lymphomegaly associated with dermatitis can also be observed. […] Mice were tracked on an individual basis.

A further assay deals with IL-17A. In words: Serum IL-17A in NZM mice. On the procedure:
as §1, §2

The next assay deals with pSTAT3. Nature of the assay: Pharmacodynamic kidney pSTAT3 (JAK2 inhibition marker) in NZM mice. To be noted: vs vehicle or CTX, p<0.01. On the procedure: Age mated, female, NZM or NZW/LacJ, mice were matured for the study of lupus nephritis for a total of 7 months or 210 days at which time urine was collected for proteinuria detection. Mice with 0.5-1.0 mg/ml of urine protein as determined by an optical density-based total protein precipitation assay and cross-checked for 30-300 mg/dl of protein as determined by a stick assay were considered proteinuria positive and selected for study entry. Groups were normalized to contain a Gaussian distribution of proteinuria positive animals (i.e., ⅓ low proteinuria, ⅓ medium, ⅓ high) then randomized between groups before ear marking and taking baseline measures including urine and serum collections. A total of five mice from the total population were randomly selected for baseline kidney histology evaluation. Treatments and tests for each group are as described in FIG. 12. Briefly, with a minimum of 10 mice per group, COMPOUND A was administered at 100 mg/kg or 55 mg/kg, both twice a day and orally. […] Vehicle included 3% DMSO, 10% Solutol and 87% PBS. […] End-stage lupus nephritis was evaluated by histopathology and scored by a board certified pathologist for the assessment of total renal damage in diseased animals using the scoring method described by Smith et al (Smith, Dong et al. 2007). […] Day-98 or “end of treatment/study” represents 310 days of age for the NZM animals.

In the case of `CN1CCN(c2cccc(Nc3nc4c(-c5ccc(S(C)(=O)=O)cc5)cccn4n3)c2)CC1` [COMPOUND A, [8-(4-methanesulfonyl-phenyl)-[1,2,4]triazolo[1,5-a]pyridin-2-yl]-[3-(4-methyl-piperazin-1-yl)-phenyl]-amine], the “serum IL-12 decrease compared to vehicle” value is given as 50.7% in the assay with IL-12 (55 mg/kg p.o. b.i.d.) and 56.1% with IL-12 (100 mg/kg p.o. b.i.d.). Also, the “serum CXCL9/MIG decrease compared to vehicle” value in the assay on CXCL9/MIG (55 mg/kg) is on record as 83.7%; in the assay with CXCL9/MIG (100 mg/kg), 85.7%. Besides, the “spleen mass decrease vs. vehicle” value in the assay with MRL/lpr mice (55 mg/kg p.o. b.i.d.) was 49.4%; in the assay with MRL/lpr mice (100 mg/kg p.o. b.i.d.), 74.1%. Besides, the “total spleen leukocyte counts compared to vehicle” value with MRL/lpr mice (55 mg/kg p.o. b.i.d.) and in the assay on MRL/lpr mice (100 mg/kg p.o. b.i.d.) was “reduced total leukocyte counts” throughout. The mice without lymphomegaly with MRL/lpr mice (55 mg/kg p.o. b.i.d.) and with MRL/lpr mice (100 mg/kg p.o. b.i.d.) was 100% each time. Moreover, the “spleen mass relative to non-lupus control animal (MRL/Mp; 98 mg)” value with MRL/lpr mice (100 mg/kg p.o. b.i.d.) was “decreased spleen mass to the level of a non-lupus control animal”. Moreover, the “serum IL-17A decrease compared to vehicle” value with IL-17A (55 mg/kg) is on record as 79.1%; with IL-17A (100 mg/kg) it was 86.2%. Also, the “levels of pSTAT3 in the kidneys” value in the assay on pSTAT3 was “significantly lower”.
